Results from US7229991B2, “Substituted 5-aminomethyl-1H-pyrrole-2-carboxamides” (priority 2002, dated 2007).
Where two headings read alike, the source gives them in different places.

What was measured:
human μ opiate receptor = human μ opiate receptor (Homo sapiens, UniProt P35372); assay: human μ opiate receptor binding assay with [3H]-naloxone, CHO-K1 membrane preparation; conditions: for inhibition at 1 µM: read-out: Human ORm Nal inhibition [%]
Experimental: b) Method for Determining Affinity for the Human μ Opiate Receptor
Receptor affinity for the human μ opiate receptor was determined in a homogeneous batch in microtitre plates. To this end, dilution series of the particular substituted 5-aminomethyl-1H-pyrrole-2-carboxylic acid amide of the general formula I to be tested were incubated at room temperature for 90 minutes in a total volume of 250 μl with a receptor membrane preparation (15-40 μg of protein per 250 μl of incubation batch) of CHO—K1 cells, which express the human μ opiate receptor (RB—HOM receptor membrane preparation from NEN, Zaventem, Belgium) in the presence of 1 nmol/l of the radioactive ligand [^3H]-naloxone (NET719, from NEN, Zaventem, Belgium) and of 1 mg of WGA-SPA beads (wheat germ agglutinin SPA beads from Amersham/Pharmacia, Freiburg, Germany). The incubation buffer used was 50 mmol/l tris-HCl supplemented with 0.05 wt. % of sodium azide and with 0.06 wt. % of bovine serum albumin. 25 μmol/l of naloxone were additionally added to determine nonspecific binding. Once the ninety minute incubation time had elapsed, the microtitre plates were centrifuged off for 20 minutes at 1000 g and the radioactivity measured in a β-Counter (Microbeta-Trilux, from PerkinElmer Wallac, Freiburg, Germany). The percentage displacement of the radioactive ligand from its binding to the human μ opiate receptor was determined at a concentration of the compounds to be tested of 1 μmol/l and stated as percentage inhibition of specific binding. On the basis of the percentage displacement by different concentrations of the compounds to be tested of the general formula I, IC50 inhibition concentrations which bring about 50% displacement of the radioactive ligand were calculated. Ki values for the test substances were obtained by conversion using the Cheng-Prusoff equation.

NA transporter = target: T1, NA transporter (Rattus norvegicus, UniProt Q63380); assay: noradrenalin uptake inhibition in rat brain synaptosomes (hypothalamus); type: biochemical; parameters: concentration or dose not given beside the values; conditions: conc. 10 (unit not given), [3H]-NA
T1 construct: Synaptosomes from rat brain regions (the “P2” fraction was used) were freshly isolated; from tissue; host or cells: rat brain synaptosomes (P2 fraction), hypothalamus
Text: (§1) c) Method for Determining Noradrenalin and the 5-HT Uptake Inhibition:
(§2) Synaptosomes from rat brain regions (the “P2” fraction was used) were freshly isolated for in vitro studies, as described in the publication “The isolation of nerve endings from brain” by E. G. Gray and V. P. Whittaker, J. Anatomy 76, pages 79-88, 1962. The corresponding literature description is hereby introduced as a reference and is deemed to be part of the disclosure.
(§3) The tissue (hypothalamus for the determination of noradrenalin uptake inhibition and medulla and pons for the determination of 5-HT uptake inhibition) was homogenised in ice-cooled 0.32 M sucrose (100 mg of tissue/1 mL) in a glass homogeniser with teflon pestle using five complete up and down strokes at 840 revolutions/minute.
(§4) The homogenate was centrifuged at 4° C. for 10 minutes at 1000 g. After subsequent centrifugation at 17000 g for 55 minutes, the synaptosomes (P2 fraction) were obtained, which were resuspended in 0.32 M glucose (0.5 mL/100 mg of original weight).
(§5) The particular uptake was measured in a 96-well microtitre plate. The volume was 250 μl and the incubation proceeded at room temperature (approx. 20-25° C.) under an O2 atmosphere.
(§6) The incubation time was 7.5 minutes for [^3H]-NA and 5 minutes for [^3H]-5-HT. The 96 samples were then filtered through a Unifilter GF/B® microtitre plate (Packard) and washed with […] of incubated buffer using a “Brabdel MPXRI-96T Cell-Harvester”. The Unifilter GF/B plate was dried for 1 hour at 55° C. The plate was then sealed with a Back seal® (Packard) and 35 μl of scintillation fluid were added per well (Ultima gold®, Packard). After sealing with a top seal® (Packard) and establishment of equilibrium (around 5 hours), radioactivity was determined in a “Trilux 1450 Microbeta” (Wallac).
The following characteristics were determined for the NA transporter: NAuptake: Km=0.32±0.11 μM
(§7) The quantity of protein used in the above determination corresponded to the values known from the literature, as for example described in “Protein measurement with the folin phenol reagent”, Lowry et al., J. Biol. Chem., 193, 265-275, 1951. A detailed description of the method may also be found in the literature, for example in M.Ch. Frink, H.-H. Hennies, W. Engelberger, M. Haurand and B. Wilffert (1996) Arzneim.-Forsch./Drug Res. 46 (III), 11, 1029-1036. The corresponding literature descriptions are hereby introduced as a reference and are deemed to be part of the disclosure.

5-HT uptake = target: T2, 5-HT uptake (Rattus norvegicus, UniProt P31652); assay: 5-HT uptake inhibition in rat brain synaptosomes (medulla and pons); type: biochemical; parameters: concentration or dose not given beside the values; conditions: conc. 10 (unit not given), [3H]-5-HT
T2 construct: Synaptosomes from rat brain regions (the “P2” fraction was used) were freshly isolated; from tissue; host or cells: rat brain synaptosomes (P2 fraction), medulla and pons
Text: as §1, §2, §3, §4, §5, §6, §7

[1] = [3H]-naloxone, from IC50 by the Cheng-Prusoff equation, read-out: Human ORm Nal Ki

T1 sequence (Q63380 1-617): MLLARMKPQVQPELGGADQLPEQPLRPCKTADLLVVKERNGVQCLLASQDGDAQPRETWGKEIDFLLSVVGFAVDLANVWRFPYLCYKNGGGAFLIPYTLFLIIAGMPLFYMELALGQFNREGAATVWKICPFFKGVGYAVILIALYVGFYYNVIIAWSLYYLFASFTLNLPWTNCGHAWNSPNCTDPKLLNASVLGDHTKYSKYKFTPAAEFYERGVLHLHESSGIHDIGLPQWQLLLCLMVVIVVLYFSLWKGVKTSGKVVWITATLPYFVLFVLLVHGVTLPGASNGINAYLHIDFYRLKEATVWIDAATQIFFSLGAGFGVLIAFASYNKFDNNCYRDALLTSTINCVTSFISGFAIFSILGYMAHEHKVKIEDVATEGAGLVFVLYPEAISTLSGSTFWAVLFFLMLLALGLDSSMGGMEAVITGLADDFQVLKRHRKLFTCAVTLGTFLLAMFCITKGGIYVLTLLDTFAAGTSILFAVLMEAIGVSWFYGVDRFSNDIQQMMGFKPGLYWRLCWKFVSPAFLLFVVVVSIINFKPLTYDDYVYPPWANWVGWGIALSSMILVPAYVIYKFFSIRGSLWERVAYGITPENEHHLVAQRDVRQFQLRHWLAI
T2 sequence (P31652 whole entry): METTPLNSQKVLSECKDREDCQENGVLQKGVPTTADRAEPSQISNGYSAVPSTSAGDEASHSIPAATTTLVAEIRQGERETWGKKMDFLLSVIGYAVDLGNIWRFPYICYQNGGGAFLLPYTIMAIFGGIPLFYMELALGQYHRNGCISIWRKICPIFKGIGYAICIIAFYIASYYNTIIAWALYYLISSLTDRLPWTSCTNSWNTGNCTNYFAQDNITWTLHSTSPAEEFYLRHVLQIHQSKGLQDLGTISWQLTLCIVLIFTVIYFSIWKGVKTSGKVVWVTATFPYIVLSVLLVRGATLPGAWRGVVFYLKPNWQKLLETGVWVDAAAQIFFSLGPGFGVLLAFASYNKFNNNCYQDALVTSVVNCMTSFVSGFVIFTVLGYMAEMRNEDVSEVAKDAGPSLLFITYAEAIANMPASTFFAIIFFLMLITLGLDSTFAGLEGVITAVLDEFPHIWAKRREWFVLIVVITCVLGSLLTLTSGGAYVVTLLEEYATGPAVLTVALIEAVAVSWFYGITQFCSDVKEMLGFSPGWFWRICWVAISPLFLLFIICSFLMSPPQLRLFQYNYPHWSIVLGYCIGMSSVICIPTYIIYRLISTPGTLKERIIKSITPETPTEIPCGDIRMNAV
human μ opiate receptor, sequence (P35372 whole entry): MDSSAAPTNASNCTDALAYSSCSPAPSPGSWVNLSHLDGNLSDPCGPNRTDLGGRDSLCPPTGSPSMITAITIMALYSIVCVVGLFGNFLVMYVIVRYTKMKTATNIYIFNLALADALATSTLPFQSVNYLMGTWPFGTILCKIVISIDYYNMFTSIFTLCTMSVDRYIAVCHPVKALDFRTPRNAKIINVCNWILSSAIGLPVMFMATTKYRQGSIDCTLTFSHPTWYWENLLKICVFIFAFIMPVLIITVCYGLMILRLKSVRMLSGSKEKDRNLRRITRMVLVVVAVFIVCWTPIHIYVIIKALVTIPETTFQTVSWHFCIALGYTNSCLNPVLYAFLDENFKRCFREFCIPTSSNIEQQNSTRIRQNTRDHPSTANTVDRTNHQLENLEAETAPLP

SMILES: CN(C)C(c1ccc(F)cc1)c1ccc(C(=O)NC2CCCCC2)n1C.Cl (centres unmarked) [Example 1, 5-[Dimethylamino-(4-fluoro-phenyl)-methyl]-1-methyl-1H-pyrrole-2-carboxylic acid cyclohexylamide hydrochloride]
- Ki (human μ opiate receptor): 160 nM
- inhibition at 1 µM (human μ opiate receptor): 62%
- Noradrenalin uptake inhibition [%] conc. 10 (NA transporter): 80%
- 5-HT uptake inhibition [%] conc. 10 (5-HT uptake): 57%

SMILES: CCCCNC(=O)c1ccc(C(c2ccc(F)cc2)N(C)C)n1C.Cl (centres unmarked) [Example 2, 5-[Dimethylamino-(4-fluoro-phenyl)-methyl]-1-methyl-1H-pyrrole-2-carboxylic acid butylamide hydrochloride]
- Ki (human μ opiate receptor; [1]): 360 nM
- inhibition at 1 µM (human μ opiate receptor): 49%
- Noradrenalin uptake inhibition [%] conc. 10 (NA transporter): 72%
- 5-HT uptake inhibition [%] conc. 10 (5-HT uptake): 52%

SMILES: CN(C)C(c1ccc(F)cc1)c1ccc(C(=O)N2CCCC2)n1C.Cl (centres unmarked) [Example 3, {5-[Dimethylamino-(4-fluoro-phenyl)-methyl]-1-methyl-1H-pyrrol-2-yl}-pyrrolidin-1-yl-methanone hydrochloride]
- Noradrenalin uptake inhibition [%] conc. 10 (NA transporter): 38%

SMILES: CN(C)C(c1ccc(Br)cc1)c1ccc(C(=O)NC2CCCCC2)n1C.Cl (centres unmarked) [Example 4, 5-[Dimethylamino-(4-bromo-phenyl)-methyl]-1-methyl-1H-pyrrole-2-carboxylic acid cyclohexylamide hydrochloride]
- Ki (human μ opiate receptor; [1]): 790 nM
- inhibition at 1 µM (human μ opiate receptor): 80%
- Noradrenalin uptake inhibition [%] conc. 10 (NA transporter): 93%
- 5-HT uptake inhibition [%] conc. 10 (5-HT uptake): 72%

SMILES: CCCCNC(=O)c1ccc(C(c2ccc(Br)cc2)N(C)C)n1C.Cl (centres unmarked) [Example 5, 5-[Dimethylamino-(4-bromo-phenyl)-methyl]-1-methyl-1H-pyrrole-2-carboxylic acid butylamide hydrochloride]
- inhibition at 1 µM (human μ opiate receptor): 62%
- Noradrenalin uptake inhibition [%] conc. 10 (NA transporter): 86%
- 5-HT uptake inhibition [%] conc. 10 (5-HT uptake): 57%

SMILES: CN(C)C(c1ccc(Br)cc1)c1ccc(C(=O)N2CCCC2)n1C.Cl (centres unmarked) [Example 6, {5-[(4-Bromo-phenyl)-dimethylamino-methyl]-1-methyl-1H-pyrrol-2-yl)-pyrrolidin-1-yl-methanone hydrochloride]
- Noradrenalin uptake inhibition [%] conc. 10 (NA transporter): 83%
- 5-HT uptake inhibition [%] conc. 10 (5-HT uptake): 51%

SMILES: CN(C)C(c1ccc(Br)cc1)c1ccc(C(=O)NCCc2ccccc2)n1C.Cl (centres unmarked) [Example 7, 5-[(4-Bromo-phenyl)-dimethylamino-methyl]-1-methyl-1H-pyrrole-2-carboxylic acid phenethylamide hydrochloride]
- Ki (human μ opiate receptor): 1000 nM
- inhibition at 1 µM (human μ opiate receptor): 65%
- Noradrenalin uptake inhibition [%] conc. 10 (NA transporter): 95%
- 5-HT uptake inhibition [%] conc. 10 (5-HT uptake): 93%

SMILES: CN(C)C(c1ccc(Br)cc1)c1ccc(C(=O)N2CCOCC2)n1C.Cl (centres unmarked) [Example 8, {5-[(4-Bromo-phenyl)-dimethylamino-methyl]-1-methyl-1H-pyrrol-2-yl}-morpholin-4-yl-methanone hydrochloride]
- Noradrenalin uptake inhibition [%] conc. 10 (NA transporter): 43%
- 5-HT uptake inhibition [%] conc. 10 (5-HT uptake): 79%

SMILES: CN(C)C(c1ccccc1)c1ccc(C(=O)NC2CCCCC2)n1C.Cl (centres unmarked) [Example 9, 5-(Dimethylamino-phenyl-methyl)-1-methyl-1H-pyrrole-2-carboxylic acid cyclohexylamide hydrochloride]
- inhibition at 1 µM (human μ opiate receptor): 76%
- Noradrenalin uptake inhibition [%] conc. 10 (NA transporter): 70%

SMILES: CCCCNC(=O)c1ccc(C(c2ccccc2)N(C)C)n1C.Cl (centres unmarked) [Example 10, 5-(Dimethylamino-phenyl-methyl)-1-methyl-1H-pyrrole-2-carboxylic acid butylamide hydrochloride]
- Noradrenalin uptake inhibition [%] conc. 10 (NA transporter): 52%

SMILES: CN(C)C(c1ccccc1)c1ccc(C(=O)N2CCCC2)n1C.Cl (centres unmarked) [Example 11, [5-(Dimethylamino-phenyl-methyl)-1-methyl-1H-pyrrol-2-yl]-pyrrolidin-1-yl-methanone hydrochloride]
- inhibition at 1 µM (human μ opiate receptor): 33%
- 5-HT uptake inhibition [%] conc. 10 (5-HT uptake): 54%
